# According to ChEMBL document CHEMBL5696442, “Discovery of type II inhibitors of TGFβ-activated kinase 1 (TAK1) and mitogen-activated protein kinase kinase kinase kinase 2 (MAP4K2)” (J Med Chem, 2015):
# Columns and labels:
# [1] = target: Focal adhesion kinase 1 (Homo sapiens) (UniProt Q05397); test: Inhibition of FAK ACT labeling site in human Huh-7 cell lysate at 1 uM by KiNativ Profiling analysis relative to control; assay type: subcellular
# [2] = target: DNA-PK/Ku70/Ku85 (Homo sapiens) (UniProt P78527+P12956+P13010); test: Inhibition of DNAPK ATP labeling site harbouring KGGSWIQEINVAEK in human Huh-7 cells at 1 uM by KiNativ Profiling analysis relative to control; assay type: cell-based
# [3] = target: Serine/threonine-protein kinase MARK2 (Homo sapiens) (UniProt Q7KZI7); test: Inhibition of MARK2 Lys2 labeling site harbouring DLKAENLLLDADMNIK in human Huh-7 cells at 1 uM by KiNativ Profiling analysis relative to control; assay type: cell-based
# [4] = Inhibition of p70S6K Lys2 labeling site in human Huh-7 cells at 1 uM by KiNativ Profiling analysis relative to control; details: condition cancer
# [5] = target: Rho-associated protein kinase 1 (Homo sapiens) (UniProt Q13464); test: Inhibition of ROCK1 in human Huh-7 cells at 10 uM by KiNativ Profiling analysis relative to control; assay type: cell-based
# [6] = target: Cyclin-dependent kinase 20 (Homo sapiens) (UniProt Q8IZL9); test: Inhibition of CCRK Lys2 labeling site in human A-375 cells at 5 uM by KiNativ Profiling analysis relative to control; assay type: cell-based
# [7] = target: Vascular endothelial growth factor receptor 3 (Homo sapiens) (UniProt P35916); test: Inhibition of FLT4 (unknown origin) at 10 uM by Ambit Kinomescan binding assay relative to control
# [8] = target: Serine/threonine-protein kinase N2 (Homo sapiens) (UniProt Q16513); test: Inhibition of PKN2 Lys2 labeling site in human A-375 cells at 0.5 uM by KiNativ Profiling analysis relative to control; assay type: cell-based
# [9] = target: Cyclin-dependent kinase 1 (Homo sapiens) (UniProt P06493); test: Inhibition of CDC2 K2 labeling site harbouring DLKPQNLLIDDKGTIK in human Huh-7 cells at 1 uM by KiNativ Profiling analysis relative to control; assay type: cell-based
# [10] = target: Mitogen-activated protein kinase kinase kinase 4 (Homo sapiens) (UniProt Q9Y6R4); test: Inhibition of MAP3K4 Lys2 labeling site in human A-375 cells at 0.05 uM by KiNativ Profiling analysis relative to control; assay type: cell-based
# [11] = target: Fibroblast growth factor receptor 4 (Homo sapiens) (UniProt P22455); test: Inhibition of FGFR4 (unknown origin) at 1 uM by Ambit Kinomescan binding assay relative to control; values are per cent of control
# [12] = target: T1, Dual specificity mitogen-activated protein kinase kinase 4 (Homo sapiens) (UniProt P45985); test: Inhibition of MEK4 (unknown origin) at 1 uM by Ambit Kinomescan binding assay relative to control; values are per cent of control
# T1 sequence (whole entry): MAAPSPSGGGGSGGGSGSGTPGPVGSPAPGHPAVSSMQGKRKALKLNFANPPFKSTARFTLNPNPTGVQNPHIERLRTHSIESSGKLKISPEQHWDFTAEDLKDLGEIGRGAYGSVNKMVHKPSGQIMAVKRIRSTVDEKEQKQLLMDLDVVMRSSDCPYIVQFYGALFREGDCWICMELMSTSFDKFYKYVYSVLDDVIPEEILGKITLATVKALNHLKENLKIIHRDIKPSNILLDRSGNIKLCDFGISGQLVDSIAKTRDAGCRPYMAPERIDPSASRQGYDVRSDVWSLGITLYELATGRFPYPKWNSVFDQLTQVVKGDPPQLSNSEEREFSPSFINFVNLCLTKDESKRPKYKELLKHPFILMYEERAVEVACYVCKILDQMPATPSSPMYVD
# [13] = target: T2, Ephrin type-B receptor 4 (Homo sapiens) (UniProt P54760); test: Inhibition of EPHB4 (unknown origin) at 1 uM by Ambit Kinomescan binding assay relative to control
# T2 sequence (whole entry): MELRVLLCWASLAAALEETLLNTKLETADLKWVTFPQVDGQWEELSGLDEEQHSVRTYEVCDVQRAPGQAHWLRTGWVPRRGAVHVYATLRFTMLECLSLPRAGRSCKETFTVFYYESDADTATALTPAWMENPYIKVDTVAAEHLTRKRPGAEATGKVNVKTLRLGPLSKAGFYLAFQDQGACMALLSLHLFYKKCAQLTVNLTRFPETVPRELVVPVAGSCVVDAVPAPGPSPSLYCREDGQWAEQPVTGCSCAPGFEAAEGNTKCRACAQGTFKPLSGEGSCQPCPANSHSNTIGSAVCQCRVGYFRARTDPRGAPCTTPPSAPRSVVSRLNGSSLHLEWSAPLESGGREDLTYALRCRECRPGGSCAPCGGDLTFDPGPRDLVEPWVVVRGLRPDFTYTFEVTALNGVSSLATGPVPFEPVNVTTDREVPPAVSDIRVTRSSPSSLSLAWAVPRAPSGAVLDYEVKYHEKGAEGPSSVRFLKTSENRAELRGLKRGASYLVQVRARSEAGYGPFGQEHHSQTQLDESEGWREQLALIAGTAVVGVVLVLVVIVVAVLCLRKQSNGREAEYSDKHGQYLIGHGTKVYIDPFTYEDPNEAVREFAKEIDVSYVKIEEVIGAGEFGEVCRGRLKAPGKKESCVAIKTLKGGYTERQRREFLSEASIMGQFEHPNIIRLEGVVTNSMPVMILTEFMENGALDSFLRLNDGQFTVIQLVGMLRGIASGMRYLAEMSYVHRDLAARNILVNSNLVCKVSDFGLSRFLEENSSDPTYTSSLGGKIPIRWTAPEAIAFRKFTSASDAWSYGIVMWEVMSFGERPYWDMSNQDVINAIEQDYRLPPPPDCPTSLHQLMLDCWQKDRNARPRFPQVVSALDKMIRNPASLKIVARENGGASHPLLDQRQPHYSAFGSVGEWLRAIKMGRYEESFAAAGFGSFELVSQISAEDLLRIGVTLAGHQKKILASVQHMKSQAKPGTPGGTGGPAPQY
# Cyclin-dependent kinase 20 (Homo sapiens), sequence (Q8IZL9 whole entry): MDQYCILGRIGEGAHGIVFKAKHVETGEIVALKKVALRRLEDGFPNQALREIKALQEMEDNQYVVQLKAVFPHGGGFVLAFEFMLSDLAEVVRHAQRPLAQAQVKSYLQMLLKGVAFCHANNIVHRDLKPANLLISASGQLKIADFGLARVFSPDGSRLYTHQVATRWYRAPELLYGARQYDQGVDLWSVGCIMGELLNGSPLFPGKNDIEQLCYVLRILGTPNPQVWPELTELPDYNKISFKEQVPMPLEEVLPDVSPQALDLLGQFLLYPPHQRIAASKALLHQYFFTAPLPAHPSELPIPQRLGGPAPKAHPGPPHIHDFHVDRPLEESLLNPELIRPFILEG
# Rho-associated protein kinase 1 (Homo sapiens), sequence (Q13464 2-1354 limits assumed): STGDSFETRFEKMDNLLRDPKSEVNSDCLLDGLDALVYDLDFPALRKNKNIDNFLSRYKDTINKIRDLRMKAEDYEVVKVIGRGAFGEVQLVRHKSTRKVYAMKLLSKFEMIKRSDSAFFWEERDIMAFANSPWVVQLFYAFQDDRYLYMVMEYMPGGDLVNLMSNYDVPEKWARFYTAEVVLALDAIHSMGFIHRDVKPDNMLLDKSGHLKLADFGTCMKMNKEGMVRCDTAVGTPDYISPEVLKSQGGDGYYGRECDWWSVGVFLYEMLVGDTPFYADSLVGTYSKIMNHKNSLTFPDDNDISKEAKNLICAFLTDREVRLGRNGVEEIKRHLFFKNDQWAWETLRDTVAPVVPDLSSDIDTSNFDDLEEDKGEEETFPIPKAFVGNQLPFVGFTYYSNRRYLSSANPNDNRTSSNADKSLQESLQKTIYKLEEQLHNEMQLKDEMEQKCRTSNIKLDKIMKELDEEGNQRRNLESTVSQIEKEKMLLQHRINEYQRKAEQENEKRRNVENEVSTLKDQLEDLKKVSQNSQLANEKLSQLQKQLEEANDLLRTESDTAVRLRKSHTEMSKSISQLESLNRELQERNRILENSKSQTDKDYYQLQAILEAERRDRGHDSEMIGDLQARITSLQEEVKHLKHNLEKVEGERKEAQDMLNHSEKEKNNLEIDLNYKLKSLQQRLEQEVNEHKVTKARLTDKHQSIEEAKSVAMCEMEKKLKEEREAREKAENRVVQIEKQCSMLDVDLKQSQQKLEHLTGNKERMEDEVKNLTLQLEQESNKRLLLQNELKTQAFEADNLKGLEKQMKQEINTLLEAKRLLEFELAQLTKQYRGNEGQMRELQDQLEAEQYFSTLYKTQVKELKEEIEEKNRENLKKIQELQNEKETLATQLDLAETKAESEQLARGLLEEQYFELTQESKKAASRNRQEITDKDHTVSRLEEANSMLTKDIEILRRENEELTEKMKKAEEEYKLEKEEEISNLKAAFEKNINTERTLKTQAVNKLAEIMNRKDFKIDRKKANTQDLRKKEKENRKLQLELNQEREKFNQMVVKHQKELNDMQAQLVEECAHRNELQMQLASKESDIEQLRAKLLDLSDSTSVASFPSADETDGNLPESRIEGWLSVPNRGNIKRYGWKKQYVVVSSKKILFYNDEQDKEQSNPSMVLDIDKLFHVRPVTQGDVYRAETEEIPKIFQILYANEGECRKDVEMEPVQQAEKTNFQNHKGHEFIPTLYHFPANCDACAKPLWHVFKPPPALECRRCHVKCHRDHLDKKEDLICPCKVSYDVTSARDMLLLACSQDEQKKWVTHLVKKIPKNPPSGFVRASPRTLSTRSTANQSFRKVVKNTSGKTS
# Fibroblast growth factor receptor 4 (Homo sapiens), sequence (P22455 22-802 limits assumed): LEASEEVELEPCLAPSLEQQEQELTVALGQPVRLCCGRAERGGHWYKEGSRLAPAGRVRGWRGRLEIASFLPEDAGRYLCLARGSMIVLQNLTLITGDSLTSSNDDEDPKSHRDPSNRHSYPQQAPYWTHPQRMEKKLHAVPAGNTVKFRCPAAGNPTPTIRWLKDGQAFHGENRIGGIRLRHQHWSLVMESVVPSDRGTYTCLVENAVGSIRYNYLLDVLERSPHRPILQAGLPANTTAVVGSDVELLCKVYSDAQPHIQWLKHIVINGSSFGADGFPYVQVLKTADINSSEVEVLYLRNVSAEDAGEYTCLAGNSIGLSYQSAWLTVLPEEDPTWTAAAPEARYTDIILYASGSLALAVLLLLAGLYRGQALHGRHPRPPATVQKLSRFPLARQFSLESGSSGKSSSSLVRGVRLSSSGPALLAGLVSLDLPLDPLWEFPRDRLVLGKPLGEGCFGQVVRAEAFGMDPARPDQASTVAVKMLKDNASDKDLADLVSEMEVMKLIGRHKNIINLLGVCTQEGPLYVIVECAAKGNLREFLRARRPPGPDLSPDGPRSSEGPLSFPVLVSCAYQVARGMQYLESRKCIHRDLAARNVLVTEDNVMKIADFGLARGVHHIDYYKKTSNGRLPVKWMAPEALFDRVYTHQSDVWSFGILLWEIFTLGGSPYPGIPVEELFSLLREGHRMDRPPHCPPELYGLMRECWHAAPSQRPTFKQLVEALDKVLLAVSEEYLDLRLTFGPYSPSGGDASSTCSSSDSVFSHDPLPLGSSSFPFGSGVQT
# Mitogen-activated protein kinase kinase kinase 4 (Homo sapiens), sequence (Q9Y6R4 whole entry): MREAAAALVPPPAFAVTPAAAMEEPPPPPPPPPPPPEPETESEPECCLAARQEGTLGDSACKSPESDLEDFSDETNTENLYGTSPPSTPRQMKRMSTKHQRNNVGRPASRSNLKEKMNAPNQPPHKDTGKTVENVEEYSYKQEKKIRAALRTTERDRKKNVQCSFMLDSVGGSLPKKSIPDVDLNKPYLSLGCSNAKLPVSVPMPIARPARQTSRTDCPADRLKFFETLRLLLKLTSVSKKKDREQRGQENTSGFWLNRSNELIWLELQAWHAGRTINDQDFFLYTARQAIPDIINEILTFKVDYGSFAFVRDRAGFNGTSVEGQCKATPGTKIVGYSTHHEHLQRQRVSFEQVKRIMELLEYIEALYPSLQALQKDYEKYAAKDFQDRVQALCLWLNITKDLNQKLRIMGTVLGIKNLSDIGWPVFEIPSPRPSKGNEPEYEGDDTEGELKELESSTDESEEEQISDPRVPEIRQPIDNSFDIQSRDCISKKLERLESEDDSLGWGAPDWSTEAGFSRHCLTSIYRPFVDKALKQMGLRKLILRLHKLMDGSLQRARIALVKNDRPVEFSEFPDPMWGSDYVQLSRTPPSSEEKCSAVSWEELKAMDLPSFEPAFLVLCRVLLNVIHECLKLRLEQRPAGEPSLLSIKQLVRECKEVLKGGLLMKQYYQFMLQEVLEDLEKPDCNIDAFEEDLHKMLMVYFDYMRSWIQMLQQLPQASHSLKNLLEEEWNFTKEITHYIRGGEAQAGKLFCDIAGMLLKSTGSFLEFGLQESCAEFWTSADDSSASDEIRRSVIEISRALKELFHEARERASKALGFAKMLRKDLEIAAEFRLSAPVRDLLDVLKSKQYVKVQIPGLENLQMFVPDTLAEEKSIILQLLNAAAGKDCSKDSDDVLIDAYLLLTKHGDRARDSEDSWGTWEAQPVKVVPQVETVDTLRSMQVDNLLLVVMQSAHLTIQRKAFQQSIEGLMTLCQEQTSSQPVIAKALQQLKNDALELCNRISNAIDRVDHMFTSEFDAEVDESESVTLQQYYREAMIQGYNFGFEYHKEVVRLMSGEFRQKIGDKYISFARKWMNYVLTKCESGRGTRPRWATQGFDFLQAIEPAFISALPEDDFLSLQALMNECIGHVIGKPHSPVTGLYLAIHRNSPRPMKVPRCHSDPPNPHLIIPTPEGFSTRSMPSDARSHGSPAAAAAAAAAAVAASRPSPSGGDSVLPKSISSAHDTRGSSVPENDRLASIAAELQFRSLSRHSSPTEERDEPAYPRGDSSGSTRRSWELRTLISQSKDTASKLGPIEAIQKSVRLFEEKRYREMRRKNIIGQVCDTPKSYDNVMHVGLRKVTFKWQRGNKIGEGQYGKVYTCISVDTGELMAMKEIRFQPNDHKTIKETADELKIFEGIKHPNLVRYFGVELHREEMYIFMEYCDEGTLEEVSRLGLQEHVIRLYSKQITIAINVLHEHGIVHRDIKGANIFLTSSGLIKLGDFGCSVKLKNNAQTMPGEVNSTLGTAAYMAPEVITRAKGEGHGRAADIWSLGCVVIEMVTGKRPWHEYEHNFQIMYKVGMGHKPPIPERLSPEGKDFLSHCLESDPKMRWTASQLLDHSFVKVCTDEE
# Cyclin-dependent kinase 1 (Homo sapiens), sequence (P06493 whole entry, looked up): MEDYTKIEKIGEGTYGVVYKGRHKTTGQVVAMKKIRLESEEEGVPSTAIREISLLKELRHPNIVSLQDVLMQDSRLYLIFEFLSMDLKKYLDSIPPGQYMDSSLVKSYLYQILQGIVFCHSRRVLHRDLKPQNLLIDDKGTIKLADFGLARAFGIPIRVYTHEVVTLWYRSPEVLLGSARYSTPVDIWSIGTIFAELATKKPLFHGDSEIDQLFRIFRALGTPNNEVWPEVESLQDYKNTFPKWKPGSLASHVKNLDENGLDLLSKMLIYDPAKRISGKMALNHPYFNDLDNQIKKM
smiles,measurement,setting,value
CNc1cc(Oc2cc(C(=O)Nc3cc(N4CCN(C)CC4)cc(C(F)(F)F)c3)ccc2C)ncn1,inhibition,[1],16%
same,inhibition,[2],71.1%
same,inhibition,[3],19.4%
same,inhibition at 1 µM,[4],-110%
CCN1CCN(Cc2ccc(NC(=O)c3ccc(C)c(Oc4ccnc5[nH]ccc45)c3)cc2C(F)(F)F)CC1,inhibition,[5],7.5%
same,inhibition,[6],4.5%
same,inhibition,[7],0.2%
same,inhibition,[8],-5.6%
same,inhibition,[9],7.9%
CCN1CCN(Cc2ccc(NC(=O)c3ccc(C)c(/C=C/c4cnc5[nH]ccc5c4OC)c3)cc2C(F)(F)F)CC1,inhibition,[10],-0.6%
same,residual activity,[11],8.1%
same,residual activity,[12],100%
same,inhibition,[13],21%
